Earlier results as cited in US20030133903A1, “Compositions for treatment of prostate cancers and methods of making and using the same” (priority 2001, published 2003).

System: LNCaP cell line
Settings: already published reports

For `CC(=O)O[C@H]1C(=O)[C@@]2(C)[C@H]([C@H](OC(=O)c3ccccc3)[C@]3(O)C[C@H](OC(=O)[C@H](O)[C@@H](NC(=O)c4ccccc4)c4ccccc4)C(C)=C1C3(C)C)[C@]1(OC(C)=O)CO[C@@H]1C[C@@H]2O` [paclitaxel], the IC50 is given as “low nM or sub nM”.
